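1) Cells in 96-well plates. 2) Compound, 48 h, 5 concentrations. 3) Linear interpolation between surrounding doses. 4) Unreached endpoint = highest concentration. Definition used: TGI = concentration required for complete inhibition of growth.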
Tests used:
Experiment in all cases: NCI-60 cell line screen, 48 h
[1] = test system: 786-0 renal
[2] = test system: A549 NSCLC
[3] = test system: ACHN renal
[4] = test system: BT-549 breast
[5] = test system: CAKI-1 renal
[6] = test system: CCRF-CEM leukemia
[7] = test system: COLO 205 colon
[8] = test system: DU-145 prostate
[9] = test system: EKVX NSCLC
[10] = test system: HCC-2998 colon
[11] = test system: HCT-116 colon
[12] = test system: HCT-15 colon
[13] = test system: HL-60(TB) leukemia
[14] = test system: HOP-62 NSCLC
[15] = test system: HOP-92 NSCLC
[16] = test system: HS 578T breast
[17] = test system: HT29 colon
[18] = test system: IGROV1 ovarian
[19] = test system: K-562 leukemia
[20] = test system: KM12 colon
[21] = test system: LOX IMVI melanoma
[22] = test system: M14 melanoma
[23] = test system: MALME-3M melanoma
[24] = test system: MCF7 breast
[25] = test system: MDA-MB-231 breast
[26] = test system: MDA-MB-435
[27] = test system: MDA-N
[28] = test system: MOLT-4 leukemia
[29] = test system: NCI-H226 lung
[30] = test system: NCI-H23 lung
[31] = test system: NCI-H460 lung
[32] = test system: NCI-H522 lung
[33] = test system: NCI/ADR-RES ovarian
[34] = test system: OVCAR-3 ovarian
[35] = test system: OVCAR-4 ovarian
[36] = test system: OVCAR-5 ovarian
[37] = test system: OVCAR-8 ovarian
[38] = test system: PC-3 prostate
[39] = test system: RPMI-8226 leukemia
[40] = test system: RXF 393 renal
[41] = test system: SF-268 CNS
[42] = test system: SF-295 CNS
[43] = test system: SF-539 CNS
[44] = test system: SK-MEL-2 melanoma
[45] = test system: SK-MEL-28 melanoma
[46] = test system: SK-MEL-5 melanoma
[47] = test system: SK-OV-3 ovarian
[48] = test system: SN12C renal
[49] = test system: SNB-19 CNS
[50] = test system: SNB-75 CNS
[51] = test system: SR leukemia
[52] = test system: SW-620 colon
[53] = test system: T-47D breast
[54] = test system: TK-10 renal
[55] = test system: U251 CNS
[56] = test system: UACC-257 melanoma
[57] = test system: UACC-62 melanoma
[58] = test system: UO-31 renal
[59] = test system: A498 renal

Nc1ccn([C@H]2CO[C@@H](CO)O2)c(=O)n1
TGI [1]: > 100 µM | TGI [2]: > 100 µM | TGI [3]: 7.87 µM | TGI [4]: > 100 µM | TGI [5]: 23 µM | TGI [6]: > 92 µM | TGI [7]: > 100 µM | TGI [8]: > 22.6 µM | TGI [9]: > 100 µM | TGI [10]: > 100 µM | TGI [11]: > 100 µM | TGI [12]: > 100 µM | TGI [13]: > 67.2 µM | TGI [14]: > 57.9 µM | TGI [15]: 43.8 µM | TGI [16]: > 100 µM | TGI [17]: > 100 µM | TGI [18]: > 100 µM | TGI [19]: > 100 µM | TGI [20]: > 100 µM | TGI [21]: > 100 µM | TGI [22]: 19.1 µM | TGI [23]: > 100 µM | TGI [24]: > 100 µM | TGI [25]: > 100 µM | TGI [26]: > 100 µM | TGI [27]: > 100 µM | TGI [28]: 49.5 µM | TGI [29]: > 100 µM | TGI [30]: > 100 µM | TGI [31]: > 100 µM | TGI [32]: > 100 µM | TGI [33]: > 100 µM | TGI [34]: > 100 µM | TGI [35]: > 100 µM | TGI [36]: > 100 µM | TGI [37]: > 100 µM | TGI [38]: > 100 µM | TGI [39]: > 100 µM | TGI [40]: > 83.3 µM | TGI [41]: > 100 µM | TGI [42]: > 100 µM | TGI [43]: 68.4 µM | TGI [44]: > 100 µM | TGI [45]: > 100 µM | TGI [46]: > 100 µM | TGI [47]: > 100 µM | TGI [48]: > 100 µM | TGI [49]: > 100 µM | TGI [50]: > 100 µM | TGI [51]: > 100 µM | TGI [52]: > 100 µM | TGI [53]: > 100 µM | TGI [54]: > 100 µM | TGI [55]: > 100 µM | TGI [56]: > 100 µM | TGI [57]: > 46.4 µM | TGI [58]: > 75.1 µM

CC(=O)Nc1ccc2c3c(cc(O)c2c1)N(C(=O)CCCC(=O)Nc1ccc2c4c(cc(O)c2c1)N(C(=O)OC(C)(C)C)CC4CCl)CC3CCl (stereo not given)
TGI [1]: > 13.1 µM | TGI [59]: 2.63 µM | TGI [2]: > 50 µM | TGI [3]: 31.2 µM | TGI [4]: 3.75 µM | TGI [5]: > 50 µM | TGI [6]: 0.599 µM | TGI [7]: 6.05 µM | TGI [8]: > 50 µM | TGI [9]: > 35.3 µM | TGI [10]: 1.91 µM | TGI [11]: > 50 µM | TGI [12]: > 50 µM | TGI [13]: 1.71 µM | TGI [14]: > 25.2 µM | TGI [15]: > 15.1 µM | TGI [16]: > 12.1 µM | TGI [17]: > 13.1 µM | TGI [18]: > 50 µM | TGI [19]: > 31.4 µM | TGI [20]: 22.7 µM | TGI [21]: > 12.4 µM | TGI [22]: 13.2 µM | TGI [23]: 2.75 µM | TGI [24]: > 16.3 µM | TGI [25]: 3.74 µM | TGI [26]: 2 µM | TGI [27]: 3.34 µM | TGI [28]: 0.912 µM | TGI [30]: 16.7 µM | TGI [31]: 21.5 µM | TGI [32]: 3.85 µM | TGI [33]: > 50 µM | TGI [34]: 2.89 µM | TGI [35]: 6.4 µM | TGI [36]: > 15.4 µM | TGI [37]: > 50 µM | TGI [38]: > 15.6 µM | TGI [39]: > 34.8 µM | TGI [40]: 10.6 µM | TGI [42]: > 42.9 µM | TGI [43]: > 50 µM | TGI [44]: 1.84 µM | TGI [45]: > 13 µM | TGI [46]: > 11.6 µM | TGI [47]: > 15.6 µM | TGI [48]: > 13.2 µM | TGI [49]: > 15 µM | TGI [50]: 12.6 µM | TGI [52]: > 50 µM | TGI [53]: 12.7 µM | TGI [54]: 35 µM | TGI [55]: 4.38 µM | TGI [56]: 3.34 µM | TGI [57]: 2.31 µM | TGI [58]: > 50 µM

COCC[N+](CCNC(=O)c1cccc2c(N)c3cccc(C)c3nc12)(CCOC)Cc1ccc([N+](=O)[O-])cc1
TGI [1]: > 100 µM | TGI [2]: > 100 µM | TGI [3]: > 100 µM | TGI [4]: 64.5 µM | TGI [5]: > 100 µM | TGI [6]: 58.1 µM | TGI [7]: 43 µM | TGI [8]: 59.1 µM | TGI [9]: 67.3 µM | TGI [10]: 27.2 µM | TGI [11]: 58 µM | TGI [12]: > 100 µM | TGI [13]: 40.1 µM | TGI [14]: > 100 µM | TGI [15]: 94.6 µM | TGI [16]: 39.3 µM | TGI [17]: 76.5 µM | TGI [18]: 33.5 µM | TGI [20]: 30.9 µM | TGI [21]: 81.5 µM | TGI [22]: > 100 µM | TGI [24]: 89.8 µM | TGI [25]: 58.8 µM | TGI [26]: 83.4 µM | TGI [27]: > 100 µM | TGI [28]: 39.2 µM | TGI [30]: > 100 µM | TGI [31]: 29.5 µM | TGI [32]: 36.3 µM | TGI [33]: > 100 µM | TGI [34]: 99.1 µM | TGI [35]: > 100 µM | TGI [36]: > 100 µM | TGI [37]: > 100 µM | TGI [38]: > 100 µM | TGI [39]: 27.2 µM | TGI [41]: 87.5 µM | TGI [42]: > 100 µM | TGI [43]: 56.7 µM | TGI [44]: > 100 µM | TGI [45]: 52 µM | TGI [46]: 22.9 µM | TGI [48]: > 100 µM | TGI [49]: > 100 µM | TGI [50]: 61.7 µM | TGI [51]: 35.3 µM | TGI [52]: > 100 µM | TGI [53]: 37.3 µM | TGI [54]: > 100 µM | TGI [55]: > 100 µM | TGI [56]: 46 µM | TGI [57]: 42.5 µM | TGI [58]: > 100 µM

Cc1c(C)c(S(=O)(=O)N(CCCCCN)OCCCN)c(C)c2c1OC(C)(C)CC2
TGI [1]: 29 µM | TGI [59]: 40.9 µM | TGI [2]: > 100 µM | TGI [3]: 39 µM | TGI [4]: 29.8 µM | TGI [5]: > 59.1 µM | TGI [6]: > 23.5 µM | TGI [7]: > 74.8 µM | TGI [8]: > 70.5 µM | TGI [9]: 25.3 µM | TGI [10]: 6.05 µM | TGI [11]: 30 µM | TGI [12]: 42.5 µM | TGI [13]: 5.92 µM | TGI [14]: 25.1 µM | TGI [15]: 67.6 µM | TGI [16]: 28.4 µM | TGI [17]: 28.7 µM | TGI [18]: 11 µM | TGI [19]: > 59.7 µM | TGI [20]: 8.93 µM | TGI [21]: > 44.4 µM | TGI [22]: > 100 µM | TGI [23]: 28 µM | TGI [24]: > 100 µM | TGI [25]: 31.7 µM | TGI [26]: 15.3 µM | TGI [27]: 31.1 µM | TGI [28]: 48.5 µM | TGI [29]: 32.7 µM | TGI [30]: 33 µM | TGI [31]: 19.7 µM | TGI [32]: 13.3 µM | TGI [33]: 41.7 µM | TGI [34]: 19.9 µM | TGI [35]: 13.3 µM | TGI [36]: > 55.2 µM | TGI [37]: > 50 µM | TGI [38]: 18 µM | TGI [39]: 18 µM | TGI [40]: 71.9 µM | TGI [41]: 28.5 µM | TGI [42]: 45.8 µM | TGI [43]: > 100 µM | TGI [44]: 11.2 µM | TGI [45]: 65.4 µM | TGI [46]: > 50.4 µM | TGI [47]: 32 µM | TGI [48]: > 100 µM | TGI [49]: 24.8 µM | TGI [50]: 25.7 µM | TGI [52]: > 40.2 µM | TGI [53]: > 57.8 µM | TGI [54]: 37.8 µM | TGI [55]: > 36.9 µM | TGI [56]: 38.6 µM | TGI [57]: 30.3 µM | TGI [58]: 41.1 µM

From PubChem BioAssay (NCI)
